We go through nine compounds from PubChem BioAssay (NCI).

What all share (test): DTP human tumour cell line panel, 48 h
Test [1] has as its system DU-145 prostate.
Test [2] deals with EKVX NSCLC.
The test system of test [3] is HCC-2998 colon.
The test system of test [4] is PC-3 prostate.
The test system of test [5] is SF-539 CNS.
The test system of test [6] is SK-MEL-5 melanoma.
Test [7] deals with SN12C renal.
Test [8] has as its system SNB-19 CNS.
Test [9] relates to U251 CNS.
Test [10] deals with UACC-257 melanoma.

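Five concentrations, 48 hours, 96-well plates. At the GI50, growth is halved. TGI: concentration producing complete growth inhibition.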

Regarding `C[C@@H]1C[C@@H]([C@@H](CC2CC(=O)NC(=O)C2)OC(=O)CC(=O)c2ccccc2)C(=O)[C@@H](C)C1`, the GI50 (in general, the concentration at which growth is held to half of that of the control) in [1] was 0.769 µM; in test [2], 0.495 µM; in test [3] it was 0.373 µM; in test [4] it was 0.444 µM; in test [5], 0.521 µM; in test [6], 0.661 µM. The GI50 in test [7] was 0.15 µM; in test [8], 0.774 µM; in [9], 0.925 µM; in test [10], 0.358 µM. In addition, the TGI – broadly, the concentration at which net growth stops – in test [1] is above 33.3 µM; in test [3], above 26.5 µM; in [4], above 100 µM; in test [5] it was 16.6 µM; in test [6], above 100 µM; in test [7], above 39.3 µM. Besides, the TGI in test [8] is above 100 µM; in [9] it was above 100 µM; in test [10], 13 µM.
For the compound `O=C(/C=C/c1ccc[nH]1)c1ccc(-n2ccc(C(F)(F)F)n2)cc1`, the GI50 in [1] was above 100 µM; in test [2] it was above 100 µM; in test [3] it was above 100 µM; in test [4], 0.371 µM; in test [5], 2.53 µM; in test [6] it was above 100 µM. Moreover, the GI50 was 10.1 µM in test [7], above 100 µM in test [8], 5.55 µM in [9] and above 100 µM in [10]. Besides, the TGI in test [1], in test [2], in [3], in [4], in test [5] and in test [6] was above 100 µM throughout. Also, the TGI in [7], in test [8], in test [9] and in [10] was above 100 µM each time.
On to `NC(N)=N/N=C/c1c(Cl)cccc1Cl`, for which the GI50 in test [1] is 23.1 µM; in test [2], 15.9 µM; in [3] it was 14.8 µM; in [4], 31 µM; in test [5], 23.7 µM; in test [6] it was 14.6 µM. Also, the GI50 in test [7] was 36.6 µM; in [8], 37.7 µM; in test [9], 16.3 µM; in [10] it was 12.3 µM. In addition, the concentration for total growth inhibition (TGI) in [1] was above 100 µM; in test [2], 47.5 µM; in test [3], 28.6 µM; in test [4] it was above 100 µM; in test [5], above 100 µM; in test [6] it was 27.7 µM. For the same compound, the TGI in [7] was above 100 µM; in test [8] it was above 100 µM; in [9], 33.7 µM; in test [10] it was 27.3 µM.
In the case of `CCOC(=O)Nc1cc2c(c(N)n1)N=C(c1ccccc1)CO2`, the GI50 in test [1] is 0.194 µM; in [2], 0.409 µM; in test [3] it was 0.414 µM; in test [4], 0.182 µM; in test [5] it was 0.195 µM; in [6] it was 0.174 µM. Besides, the GI50 in test [7] was 0.84 µM; in [8], 0.414 µM; in test [9], 0.183 µM; in [10] it was 17.5 µM. The TGI in [1] was 1.44 µM; in test [2], above 46 µM; in [3], 8.96 µM; in test [4] it was 6.44 µM; in test [5] it was 0.789 µM; in test [6] it was 5.9 µM. The TGI came out at 31.1 µM in test [7], 25 µM in test [8], 14.3 µM in test [9] and 99.6 µM in [10].
As to `Clc1cc2c(c(CSc3nc4ccccc4n4cccc34)c1)OCOC2`, the GI50 in test [1] is above 100 µM; in test [2] it was 29.6 µM; in [3], above 100 µM; in test [4], above 100 µM; in [5] it was 22.9 µM; in test [6], above 100 µM. Moreover, the GI50 in test [7] is above 100 µM; in test [8], 41 µM; in test [9] it was 17.1 µM; in test [10], above 100 µM. The TGI in test [1], in [2], in [3], in test [4], in test [5] and in test [6] was above 100 µM in each case. Further, the TGI in [7], in test [8], in [9] and in test [10] was above 100 µM throughout.
Consider `CNCCOC(=O)/C=C1\CC[C@H]2[C@@H]([C@@H](O)C(=O)[C@@H]3[C@]2(C)CC[C@H](O)[C@]3(C)C(=O)OC)[C@H]1C`, for which the 50% growth inhibitory concentration (GI50) is 0.188 µM in [1]; 0.229 µM in test [2]; 1.35 µM in test [3]; 0.369 µM in [4]; 0.267 µM in [5]; 0.252 µM in test [6]. Also, the GI50 in [7] is 0.327 µM; in [8], 0.668 µM; in [9], 0.324 µM; in [10] it was 0.479 µM. For the same compound, the TGI in [1] turned out to be 0.371 µM; in test [2] it was 0.539 µM; in test [3] it was 3.63 µM; in test [4], 2.34 µM; in [5] it was 0.701 µM; in test [6], 0.734 µM. For the same compound, the TGI in test [7] is 1.64 µM; in test [8] it was 1.99 µM; in test [9] it was 1.17 µM; in [10], 1.73 µM.
With `NNC(=O)CNc1cccc(Br)c1`, the TGI in test [1], in test [2], in test [3], in test [4], in test [5] and in test [6] was above 100 µM each time. Besides, the TGI in test [7], in [8], in test [9] and in [10] was above 100 µM throughout.
`N#C/C(=C\c1ccc2ccccc2c1)C(=O)c1ccccc1`: the TGI was above 100 µM in test [1]; above 100 µM in test [2]; above 100 µM in test [3]; above 100 µM in [4]; above 100 µM in [5]; above 78.5 µM in test [6]. The TGI in test [7] was above 87.2 µM; in test [8] it was above 100 µM; in [9], 32.9 µM; in test [10], above 100 µM.
With `Cc1nc(N)sc1N=Nc1ccccc1Br`, the TGI was 58.5 µM in [1]; 76.3 µM in test [2]; 21.7 µM in [3]; 63 µM in test [4]; above 59.5 µM in test [5]; 48.6 µM in test [6]. Besides, the TGI was 57.5 µM in test [7], above 69.7 µM in [8], 52.6 µM in [9] and 55.8 µM in [10].
